Assay results published in patent publication US8940697B2, “Compositions and methods for the treatment of myocardial ischemia/reperfusion injury with Annexin A1 short peptide” (Duke University, priority 2009, dated 2015).
Entries after “also recorded” stand apart in the source; their conditions may differ. Marks after values point to notes of the source that are not given here. No end group written: not given here.

Experiments:
[1] = system: adult rat ventricular cardiomyocytes (ARVC); test: Long-term culture survival of adult rat cardiomyocytes in normal or high glucose; assay type: cell-based; conditions: for cardiomyocytes still alive, with rod-shaped morphology: day 26
From the text: Cardiomyocytes isolated from adult rats were exposed to ANXAsp (FIG. 3C and FIG. 3D) or the N-terminal 25mer Ac2-26 (FIG. 3E and FIG. 3F) in either normal glucose (NG) or high glucose (HG), respectively, for 26 days, Untreated control cells in normoglycemic and hyperglycemic media are presented in FIG. 3A and FIG. 3B,
(§1) Cardiomyocytes isolated from adult rat in both normal and hyperglycemic culture media were exposed directly to ANXA1sp. […] The cardioprotective effects of ANXA1sp was further examined in hyperglycemic exacerbation of myocardial injury due to simulated ischemia/reperfusion in vitro. Adult rat ventricular cardiomyocytes (ARVCs) were treated with/without either ANXA1sp or Ac2-26 in both normo- and hyperglycemic culture media for 24 hours. Cells were washed with deoxygenated glucose-free DMEM medium in an anaerobic chamber that filtrated a gas mixture of 5% CO2-10% H2-85% N2 and incubated for 2 hours. After oxygen/glucose deprivation (OGD), cells were cultured under normoxic conditions in a 5% CO2 incubator for 24 hours. Cells without OGD were used as a positive control. Cell death was determined by trypan blue exclusive staining. Cells were counted in triplicate wells and in eight random fields in each well.

[2] = system: NF-kB activation in human pancreatic cancer cell lines; test: NF-kB activation in human pancreatic cancer cell lines by ANXA1 N-terminus short peptides; assay type: cell-based; conditions: compared with the other ANXA1 peptides of FIG. 1
From the text: FIG. 1 is a graph showing the effect of ANXA1 N-terminus short peptides Ac-QAW, Ac-KQAW (SEQ ID NO:3), Ac-[…] (SEQ ID NO:10), Ac-FLK, Ac-EFLKQAW (SEQ ID NO:6) and Ac-VSEFLKQAW (SEQ ID NO:9) on NF-kB activation in human pancreatic cancer cell lines. Values presented are means±SD; n=5; *P<0.05 and #P<0.001 vs. control (0). Ac=acetylation.

NIH 3T3 cells = test: LPS-induced NIH 3T3 cells: NF-κB activity, IL-6, cell death; assay type: cell-based; conditions: LPS+peptide vs LPS, 0, 1, 3 and 6 hours
Method: FIG. 2A is a graph showing the effect of ANXA1sp on NF-κB activity over time on NIH 3T3 cells activated with LPS alone and LPS+peptide. FIG. 2B is a graph showing the effect of ANXA1sp on interleukin-6 (IL-6) production over time by NIH 3T3 cells activated with LPS alone and LPS+peptide.
The ANXA1sp was next tested in LPS-induced NIH 3T3 cells to determine if NF-κB activity was inhibited. NIH 3T3 cells were exposed to LPS or LPS+ANXA1sp (LPS+Peptide) for 0, 1, 3 and 6 hours. Cell lysates were obtained and levels of NF-κB activity and IL-6 were measured by ELISA. Cell death was also measured by Trypan blue exclusion.

[3] = system: adult rat ventricular cardiomyocytes (ARVC); test: ARVC simulated I/R (oxygen-glucose deprivation/reoxygenation); assay type: cell-based; conditions: for cTnI: 30 μM ANXA1sp, 2 h OGD + 24 h reoxygenation, supernatant; for HFABP / TNFα / Apoptosis / Cell Death: 30 μM, OGD/reoxygenation; for Apoptosis: ELISA; for Cell Death: trypan blue
Method: FIG. 4A. Cells were exposed to normal glucose (NG) (a, e), high glucose (HG) (b, f), HG+ANXA1sp (c, g) and HG+Ac2-26 (d, h), respectively, for 24 hours. Cells (e, f, g, h) were washed with deoxygenated glucose-free DMEM medium in an anaerobic chamber that contained a gas mixture of 5% CO2, 10% H2, and 85% N2 and incubated for 2 hours. After oxygen/glucose deprivation (OGD), ARVC cells were cultured in DMEM medium under normoxic conditions in a 5% CO2 incubator for 24 hours. Cells (a, b, c, d) without OGD were used as a control. Cell death was determined by trypan blue staining. FIG. 4B is a graph of the results obtained in FIG. 4A. Specifically, cells were counted in a total of eight random fields in triplicate wells. Values presented are means±SD; n=8.
as §1
In vitro study: ARVCs from male Sprague-Dawley (SD) rats were incubated in normal or high glucose (25 mM), with and without 30 μM ANXA1sp (Ac-QAW), or with a scrambled peptide (Ac-QWA), respectively for 24 h. Cells were subjected to 2 h oxygen-glucose deprivation (OGD), followed by 24 h reoxygenation in either normo- or hyperglycemic conditions. Cell death was determined histologically (trypan blue exclusion) and biochemically (supernatant levels of cTnI and HFABP, ELISA). Apoptosis was quantified using ELISA (Roche).

male SD rats = test: Rat CPB/CA model of myocardial I/R injury (normo- and hyperglycemic); assay type: in vivo; conditions: for NF-κB activity / IL-6 / TNF-α / Caspase-3 / MPO / Apoptosis / HFABP / cTnI: 3 mg/kg total; for NF-κB activity: myocardial DNA binding activity; for NF-κB activity / IL-6 / TNF-α / Caspase-3 / MPO / Apoptosis / HFABP: 24 h; for IL-6 / TNF-α: myocardial tissue; for Caspase-3 / MPO / Apoptosis: myocardium; for Apoptosis: TUNEL; for HFABP / cTnI: plasma; for cTnI: 24 h post-reperfusion
Method: Next, studies were carried out to determine the effectiveness of ANXA1sp on myocardial protection in vivo using a clinically-relevant rodent experimental model of surgical global myocardial ischemia/reperfusion injury. […] Rats were exposed to CPB for 15 minutes before ischemic/reperfusion injury was initiated (i.e., cardioplegic arrest was induced) and maintained for 45 minutes, followed by another 15 minutes of CPB. Animals were weaned from cardiopulmonary bypass and allowed to recover for 24 hours, at which point blood and left ventricular myocardial tissue were harvested for analysis. FIG. 5B is a graph showing the blood glucose levels in rats before and after ischemia. Acute hyperglycemia was induced using dextrose 25% (5 gm/kg) administered preoperatively 0.75 gm intraperitoneally, intraoperatively 0.25 gm in CPB prime and 0.5 gm/hr intravenously, and postoperatively 1 hour after weaning from CPB (intraperitoneally). Perioperative blood glucose levels were maintained at >300 mg/dl. Cardioplegic arrest was induced with cold (4:1) blood cardioplegia. Animals in the AXNA1sp treated group received a total of 3 mg/kg ANXA1sp in 3 equal doses administered before (intraperitoneally), during (intracoronary, mixed with cardioplegia solution), and after CPB (intraperitoneally), respectively. Control animals underwent an identical surgical procedure with vehicle instead of ANXA1sp.
In vivo study: with IACUC approval, male SD rats were randomly assigned to 4 groups in a 2×2 design (n=5/group): normo- and hyperglycemic (20 mM) cardioplegic arrest (CA), each treated with ANXA1sp or vehicle, respectively. All animals underwent 75 min of mild hypothermic CPB (33° C.) with 45 min of CA using blood cardioplegia. Treatment groups received ANXA1sp (Ac-QAW, GenScript, 3 mg/kg total) before (ip), during (with cardioplegia), and after CPB (ip) in equal doses, whereas CA control animals received saline. No animals received insulin. At 24 h post-reperfusion the following efficacy end-points were assessed by investigators blinded to the experimental group: 1) plasma myonecrosis biomarkers—cTnI and HFABP (rat specific ELISA, LifeDiagnostics); 2) myocardial apoptosis—cleaved caspase-3 (immunostaining and Western blot) and TUNEL assays; 3) myocardial inflammation—NF-kB DNA binding activity (ELISA, Panomics) and tissue levels of TNF-α and IL-6 (ELISA, ThermoScientific); and 4) myocardial neutrophil transmigration—myeloperoxidase (MPO) activity (ELISA, ThermoScientific).

Male Yorkshire pigs = test: Pig CPB/CA model of myocardial I/R injury; assay type: in vivo
Method: Pig CPB/CA: Male Yorkshire pigs (32-38 kg) were subjected to 120 min of mild hypothermic CPB, including 60 min of CA using 4:1 blood cardioplegia, and received either ANXA1sp (iv after anesthesia induction and with each dose of cardioplegia, 4 mg/kg total, CA_SP group, n=4) or vehicle (CA_CTRL, n=8). Efficacy endpoints and underlying mechanisms were assessed as described herein.

[4] = 4 mg/kg, systemically and in the cardioplegia solution

Ac-Ala-Met-Val-Ser-Glu-Phe-Leu-Lys-Gln-Ala-Trp-Phe-Ile-Glu-Asn-Glu-Glu-Gln-Glu-Tyr-Val-Gln-Tyr-Val-Lys (Ac-AMVSEFLKQAWFIENEEQEYVQYVK) [Ac2-26, commercial annexin A1 N-terminal 25mer peptide, reference compound]
rod-shaped cardiomyocytes found ([1]; normal and hyperglycemic media, beyond day 14): no rod-shaped cardiomyocytes were found

Ac-Gln-Ala-Trp [ANXA1sp]
inhibiting NF-κB activity [2]: most effective at inhibiting NF-κB activity | apoptosis (cell death, Trypan blue exclusion) (NIH 3T3 cells): inhibited | IL-6 (NIH 3T3 cells; ELISA): inhibited | NF-κB activity (NIH 3T3 cells; ELISA of cell lysates): inhibited | protection of cardiomyocytes from cell death ([1]; both normo- and hyperglycemic conditions): significantly protected cardiomyocytes from cell death | cardiomyocytes still alive, with rod-shaped morphology ([1]; high glucose): ~50% | cardioprotective effect compared with Ac2-26 ([1]; long-term culture, normal and high glucose): much stronger than that of the commercial annexin A1 N-terminal peptide, Ac2-26 | cardiomyocytes still alive, with rod-shaped morphology ([1]; normal glucose): about 70% | cardiomyocyte cell death (trypan blue) ([3]; 24 h pretreatment, 2 h OGD, 24 h normoxia, Example 3): significantly decreased cardiomyocyte cell death | cTnI ([3]; HG_SP: high glucose (25 mM)): 7.8 ± 0.6 ng/mL | HFABP ([3]; HG_SP: high glucose (25 mM)): 2.0 ± 0.4 ng/mL | TNFα ([3]; HG_SP: high glucose (25 mM)): 1.2 ± 0.1 ng/mg protein | Apoptosis ([3]; HG_SP: high glucose (25 mM)): 0.7 ± 0.2 A.U. | Cell Death ([3]; HG_SP: high glucose (25 mM)): 40.5 ± 11.1 % | cTnI ([3]; NG_SP: normal glucose): 5.7 ± 0.4 ng/mL | HFABP ([3]; NG_SP: normal glucose): 2.4 ± 1.4 ng/mL | TNFα ([3]; NG_SP: normal glucose): 0.84 ± 0.1 ng/mg protein | Apoptosis ([3]; NG_SP: normal glucose): 0.7 ± 0.2 A.U. | Cell Death ([3]; NG_SP: normal glucose): 38.6 ± 5.9 % | cardioprotective efficacy compared with Ac2-26 ([3]; OGD, high glucose, Example 3, FIG. 4): stronger cardioprotective efficacy than Ac2-26 | NF-κB activity (male SD rats; CAHG_SP: hyperglycemic): 1.5 ± 0.5 A.U. | IL-6 (male SD rats; CAHG_SP: hyperglycemic): 107.3 ± 15.5 ng/mg | TNF-α (male SD rats; CAHG_SP: hyperglycemic): 105.6 ± 13.3 ng/mg | Caspase-3 (male SD rats; CAHG_SP: hyperglycemic): 5.9 ± 1.4 A.U. | MPO (male SD rats; CAHG_SP: hyperglycemic): 467.2 ± 72.4 ng/mg | Apoptosis (male SD rats; CAHG_SP: hyperglycemic): 9.5 ± 1.2 % | HFABP (male SD rats; CAHG_SP: hyperglycemic): 12.4 ± 2.6 ng/mL | cTnI (male SD rats; CAHG_SP: hyperglycemic): 2.1 ± 0.5 ng/mL | NF-κB activity (male SD rats; CA_SP: normoglycemic): 0.8 ± 0.04 A.U. | IL-6 (male SD rats; CA_SP: normoglycemic): 38.2 ± 8.1 ng/mg | TNF-α (male SD rats; CA_SP: normoglycemic): 28.8 ± 6.7 ng/mg | Caspase-3 (male SD rats; CA_SP: normoglycemic): 1.9 ± 1.5 A.U. | MPO (male SD rats; CA_SP: normoglycemic): 104.8 ± 6.6 ng/mg | Apoptosis (male SD rats; CA_SP: normoglycemic): 2.4 ± 1.1 % | HFABP (male SD rats; CA_SP: normoglycemic): 1.0 ± 0.3 ng/mL | cTnI (male SD rats; CA_SP: normoglycemic): 1.0 ± 0.7 ng/mL | myocardial apoptosis (TUNEL) (male SD rats; Example 4: acute hyperglycemia, 3 mg/kg, FIG. 7B, 3 mg/kg): attenuated; also recorded: significantly decreased | myocardial MPO (male SD rats; Example 4: acute hyperglycemia, 3 mg/kg, FIG. 8, 3 mg/kg): attenuated; also recorded: significantly decreased | myocardial NF-κB DNA binding activity (male SD rats; Example 4: acute hyperglycemia, 3 mg/kg, FIG. 9, 3 mg/kg): attenuated; also recorded: significantly decreased | myocardial TNF-α (male SD rats; Example 4: acute hyperglycemia, 3 mg/kg, FIG. 10A, 3 mg/kg): attenuated; also recorded: significantly decreased | myocardial IL-6 (male SD rats; Example 4: acute hyperglycemia, 3 mg/kg, FIG. 10B, 3 mg/kg): attenuated; also recorded: significantly decreased | myocardial caspase-3 activity (male SD rats; Example 4: acute hyperglycemia, 3 mg/kg, Western blot, FIG. 7A, 3 mg/kg): attenuated; also recorded: significantly decreased | myonecrosis biomarker HFABP (male SD rats; Example 4: acute hyperglycemia, 3 mg/kg, vs CAHG, FIG. 6B, 3 mg/kg): attenuated; also recorded: significantly decreased | hyperglycemic exacerbation of perioperative myocardial injury (male SD rats; Example 4: cardioplegic arrest and acute hyperglycemia, 3 mg/kg): attenuated | myonecrosis biomarker cTnI (male SD rats; Example 4: cardioplegic arrest and acute hyperglycemia, 3 mg/kg, vs CAHG, FIG. 6A, 3 mg/kg): attenuated; also recorded: significantly decreased | in vivo interaction between ANXA1 and NF-κB p65 subunit (male SD rats; co-immunoprecipitation and confocal co-localization in cardiomyocytes, FIG. 11): significantly induces; also recorded: strongly induced | hemodynamics (Male Yorkshire pigs; 4 mg/kg total): improved hemodynamics | animals requiring inotropic or vasopressor support (Male Yorkshire pigs; 4 mg/kg total, support substantial in all control animals): none requiring either inotropic or vasopressor support | left ventricular dysfunction (Male Yorkshire pigs; [4]): significant reduction | postoperative arrhythmias (Male Yorkshire pigs; [4]): significant reduction | vasoplegia (Male Yorkshire pigs; [4]): significant reduction | Apoptosis (Male Yorkshire pigs; CA_SP: 4 mg/kg total): 5.9 ± 2.3 % | Epinephrine (inotropic support required) (Male Yorkshire pigs; CA_SP: 4 mg/kg total): 0** mcg/6 hs | Heart Rate (Male Yorkshire pigs; CA_SP: 4 mg/kg total): 135 ± 18 beats/min | NF-κB activity (Male Yorkshire pigs; CA_SP: 4 mg/kg total): 0.8 ± 0.04 A.U. | SVI (stroke volume index) (Male Yorkshire pigs; CA_SP: 4 mg/kg total): 36 ± 5 ml/m^2 | TNF-α (Male Yorkshire pigs; CA_SP: 4 mg/kg total): 28.8 ± 6.7 ng/mg protein | Vasopressin (vasopressor support required) (Male Yorkshire pigs; CA_SP: 4 mg/kg total): 0** U/6 hrs | Caspase-3 (Male Yorkshire pigs; CA_SP: 4 mg/kg total, iv and with cardioplegia): 137.3 ± 9.8 A.U.
